Patent US8367835B2, “Cyclic amine-1-carboxylic acid ester derivative and pharmaceutical composition containing the same” (Dainippon Sumitomo Pharma Co., Ltd., priority 2008, dated 2013)
Like-named read-outs stand apart in the source and are kept apart here.

Experiments:
[1] = test system: eye of a Std: ddy male mouse; assay: Pungency: eye-wiping test; assay type: in vivo; conditions: 10 μg/ml, one drop to mouse eye, counted every minute up to 5 minutes
Method: The test is to examine the pungency of the compound of the present invention, and was carried out in accordance with the method by Jancso et al. [Acta. Physiol. Acad. Sci. Hung., 19, 113-131 (1961)] and the method by Szallasi et al. [Brit. J. Pharmacol., 119, 283-290 (1996)]. Specifically, the test compounds were dissolved in physiological saline containing 5% Tween 80 and 5% ethanol to give each (10 or 30 μg/ml) concentration, and one drop of the obtained solution was applied to the eye of a Std: ddy male mouse (5 mice per group, body weight 20 to 30 g) and the number of the protective wiping behavior with the front paws was counted every minute up to 5 minutes after the administration. Then, the average counts in each minute was calculated and the maximum number was defined as the representative value. Further, as vehicle control, the same test was carried out using physiological saline containing 5% Tween 80 and 5% ethanol.

[2] = molecular target: T1, TRPV1 (Rattus norvegicus, UniProt O35433); assay: TRPV1 agonist activity by intracellular calcium level (FLIPR method); assay type: cell-based; conditions: rat dorsal root ganglion primary culture cells
T1 construct: using cultured rat dorsal root ganglion cells which express TRPV1 abundantly; endogenous in cells; host or cells: primary culture of dorsal root ganglion cells from 7 day old Wistar rat
From the text: The test is to measure the elevation of intracellular calcium level as the indicator of TRPV1 agonist activity of a test compound using cultured rat dorsal root ganglion cells which express TRPV1 abundantly, and carried out in accordance with the method of Jerman et al. (Jerman, J. C. et al., Comparison of effects of anandamide at recombinant and endogenous rat vanilloid receptors. Br J Anaesth, 2002. 89(6): p. 882-7). More specifically, the dorsal root ganglion was removed from a 7 day old Wistar rat, and the cells were isolated by collagenase-trypsin treatment. Subsequently, the primary cells was cultured in a CO2 incubator controlled at 5% CO2 and 37° C. for 2 days. The culture medium used was Neurobasal™ medium supplemented with L-glutamine, nerve growth factor, N-2-Supplement, Penicillin-Streptomycin, 5-Fluoro-2′-deoxyuridine (culture day 1 only) were added to.
FLIPR^TETRA system (Molecular Devices Corp.) was used to measure the intracellular calcium concentration. As an indicator of TRPV1 agonistic activity, the fluorescence intensity elevation was monitored when a test compound is applied to the rat dorsal root ganglion primary culture cells loaded with a calcium-sensitive fluorescent reagent.

[3] = test system: mechanical hyperalgesia in a neuropathic pain model (rat Chung model); assay: Analgesic effect: von Frey filament test using rat Chung model, transdermal administration; assay type: in vivo; conditions: 0.1% formulation applied transdermally to plantar surface of left hindlimb once a day for 2 weeks; measured on the day after last administration; pre-administration value = 100%
Method: The present test is to measure the analgesic effect based on the improvement level of the mechanical hyperalgesia in a neuropathic pain model as the indicator by transdermally administering the compound of the present invention and was carried out in accordance with the method of Kim and Chung [Pain, 50, 355-363 (1992)] or the method of Tsuda et al. [Nature, 424, 778-783, 2003].
Specifically, using Jcl: Wistar male rat (7 to 9 rats/group, 5 weeks of age at the time of surgery), spinal nerves were injured to induce hyperalgesia and the withdrawal threshold was measured using the von Frey filament. In the surgery, under Pentobarbital anesthesia, the left L5 spinal nerve was exposed, ligated near the spinal cord using a silk suture (5-0) and transected just peripheral to the ligation. After suturing the incision and keeping the rats for 2 weeks, the rats were subjected to the von Frey filament test. The measurement of the mechanical hyperalgesia was carried out by applying von Frey filaments (1.0, 2.0, 4.0, 8.0, 15.0 g) to the plantar surface of the left hindlimb, and the filament intensity at which 50% or higher withdrawal behavior was observed was defined as the withdrawal threshold.
After dissolving the test compounds in a mixture of Tween 80 and ethanol, the obtained solution was mixed with a hydrophilic ointment to prepare a formulation having a concentration of 0.1%. The withdrawal threshold before administering the test compound was measured to define the pre-administration value (100%). Thereafter, once a day, for 2 weeks, the formulation having a concentration of 0.1% was transdermally administered (applied) to the plantar surface of the left hindlimb, the von Frey filament test was carried out on the following day of the last administration to measure the post-administration value. Further, the same formulation as above but free of the test compound was prepared as a vehicle control and the same test was carried out.
The analgesic effect is a relative ratio when a test compound pre-administration value calculated using the following numerical formula is 100%. The pre-administration withdrawal threshold was 3.3±0.1 g (119 cases) (the withdrawal threshold of sham-operated rat was 10 to 15 g). %=(test compound post-administration withdrawal threshold value/pre-administration withdrawal threshold value)×100

[4] = test system: micronucleus-containing immature erythrocyte; assay: Bone marrow micronucleus test; assay type: in vivo, rat; conditions: subcutaneous, twice every 24 hours, Crl: CD male rats; dosage at which fatal cases start occurring and dosages up thereto
Method: Each compound of Examples 2, 16 and 37 dissolved in physiological saline containing ethanol and Tween 80 was subcutaneously administered to Crl: CD male rats twice every 24 hours and micronucleus inducing potential was evaluated.

[5] = test system: mechanical hyperalgesia in a neuropathic pain model (rat Chung model); assay: Analgesic effect in combination with Pregabalin: von Frey filament test using rat Chung model, i.pl. administration; assay type: in vivo; conditions: for % to pre-administration value: (1) Test compound post-i. pl. administration value: 50 μl of 0.1% (W/V) solution intraplantar to left hindlimb, measured on the following day, test compound alone; for % to pre-administration value: (2) Pregabalin post-oral administration value (Test compound administered on the day before): test compound i.pl. the day before plus Pregabalin 10 mg/kg orally, combined effect
Method: The study was conducted using the same methods and evaluation criteria as in Test Example 1 with the exception of the administration route of the test compounds (see Test Example 1).
Using the von Frey filaments the test compound pre-administration values (pressure withdrawal threshold) were measured. Subsequently, 50 μl of a solution containing a test compound or vehicle control was intraplantarly injected to the left hindlimb using a microsyringe (intraplantar injection: i. pl. administration), and on the following day the withdrawal threshold was measured (effect of the test compound alone). Thereafter, 10 mg/kg of Pregabalin was orally administered and an hour later the withdrawal threshold was measured (combined effect).
Pregabalin was dissolved in distilled water. Physiological saline containing Tween 80 and ethanol was used as the vehicle control for the i. pl. administration.
The analgesic effect is a relative ratio when a pre-administration value calculated using the following numerical formula is 100%.

[6] = read-out: Value (%) when fluorescence intensity for capsaicin (1 μM) is 100%, 1 μM
[7] = 1 μM, read-out: Value (%) when fluorescence intensity for capsaicin (1 μM) is 100%

T1 sequence (O35433 whole entry): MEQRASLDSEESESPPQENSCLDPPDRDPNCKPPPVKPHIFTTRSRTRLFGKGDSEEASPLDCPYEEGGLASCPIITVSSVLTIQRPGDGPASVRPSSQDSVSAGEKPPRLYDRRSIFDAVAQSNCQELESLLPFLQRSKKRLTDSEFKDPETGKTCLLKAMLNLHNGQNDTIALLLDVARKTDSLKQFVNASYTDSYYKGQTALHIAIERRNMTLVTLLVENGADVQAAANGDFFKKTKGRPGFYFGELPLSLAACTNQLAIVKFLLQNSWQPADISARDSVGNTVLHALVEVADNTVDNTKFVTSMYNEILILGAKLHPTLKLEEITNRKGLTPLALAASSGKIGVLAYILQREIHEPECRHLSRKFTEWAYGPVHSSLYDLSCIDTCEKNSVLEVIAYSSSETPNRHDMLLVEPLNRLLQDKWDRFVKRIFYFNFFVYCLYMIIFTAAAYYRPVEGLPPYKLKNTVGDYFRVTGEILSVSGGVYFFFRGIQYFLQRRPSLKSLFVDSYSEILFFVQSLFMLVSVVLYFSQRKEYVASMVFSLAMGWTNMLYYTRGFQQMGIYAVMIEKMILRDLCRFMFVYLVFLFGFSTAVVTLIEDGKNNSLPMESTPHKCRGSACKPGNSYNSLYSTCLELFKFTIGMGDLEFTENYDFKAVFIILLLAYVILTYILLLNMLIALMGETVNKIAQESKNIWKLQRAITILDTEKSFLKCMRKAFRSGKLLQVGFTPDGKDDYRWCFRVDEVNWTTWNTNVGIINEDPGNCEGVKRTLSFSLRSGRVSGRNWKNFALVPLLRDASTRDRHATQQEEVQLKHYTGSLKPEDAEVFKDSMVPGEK

| SMILES | % to pre-administration value (withdrawal threshold) [3] | Emax at 1 µM [2, 7] | further results |
| --- | --- | --- | --- |
| COc1cc(CNC(=O)CCCC/C=C/C(C)C)ccc1O [Capsaicin, (E)-8-methyl-N-vanillyl-6-nonenamide, reference compound] | 228% | – | Representative value of the counts of protective wiping behavior (Maximum counts, counts/min) [1]: 20.0 counts/min; Representative value of the counts of protective wiping behavior (Maximum counts, counts/min) ([1]; listed as capsaicin): vigorous wiping behavior was observed; Value (%) when fluorescence intensity for capsaicin (1 μM) is 100% ([2]; 1 μM): 100% |
| CC[C@H]1CC[C@@H](OC(=O)N2CCC(C(=O)NCc3ccc(O)c(OC)c3)CC2)CC1 [Example 1, cis-4-ethylcyclohexyl 4-(4-hydroxy-3-methoxybenzylcarbamoyl)-piperidine-1-carboxylate] | 220% | – | Emax at 1 µM [2, 6]: 87% |
| CC[C@H]1CC[C@H](OC(=O)N2CCC(C(=O)NCc3ccc(O)c(OC)c3)CC2)CC1 [Example 2] | – | – | micronucleus inducing potential [4]: no micronucleus inducing potential; Emax at 1 µM [2, 6]: 84% |
| CCC1(CC)CCC(OC(=O)N2CC(C(=O)NCc3ccc(O)c(OC)c3)C2)CC1 [Example 14, 4,4-diethylcyclohexyl 3-(4-hydroxy-3-methoxybenzylcarbamoyl)-azetidine-1-carboxylate] | 241% | 78% | – |
| COc1cc(CNC(=O)C2CN(C(=O)O[C@H]3CC[C@@H](C(C)(C)C)CC3)C2)ccc1O [Example 16] | 218% | – | micronucleus inducing potential [4]: no micronucleus inducing potential; % to pre-administration value: (1) Test compound post-i. pl. administration value [5]: 200%; % to pre-administration value: (2) Pregabalin post-oral administration value (Test compound administered on the day before) ([5]; measured an hour later): 223%; Emax at 1 µM [2, 6]: 84% |
| COc1cc(CNC(=O)[C@H]2CCN(C(=O)O[C@H]3CC[C@@H](C(C)(C)C)CC3)C2)ccc1O [Example 30] | – | 78% | – |
| COc1cc(CNC(=O)[C@@H]2CCN(C(=O)OC3CCC(C)(C)CC3)C2)ccc1O [Example 31, 4,4-dimethylcyclohexyl (R)-3-(4-hydroxy-3-methoxybenzylcarbamoyl)-pyrrolidine-1-carboxylate] | – | 68% | – |
| CC[C@H]1CC[C@@H](OC(=O)N2CC[C@@H](C(=O)NCc3ccc(O)c(OC)c3)C2)CC1 [Example 32] | – | 78% | – |
| CCC1(CC)CCC(OC(=O)N2CC[C@@H](C(=O)NCc3ccc(O)c(OC)c3)C2)CC1 [Example 33] | – | 73% | – |
| COc1cc(CNC(=O)[C@@H]2CCN(C(=O)O[C@H]3CC[C@@H](C(C)(C)C)CC3)C2)ccc1O [Example 34] | – | 72% | – |
| COc1cc(CNC(=O)C2CCN(C(=O)O[C@@H]3CCC[C@@H](C)C3)CC2)ccc1O [Example 35, (1R,3R)-3-methylcyclohexyl 4-(4-hydroxy-3-methoxybenzylcarbamoyl)-piperidine-1-carboxylate] | 183% | 86% | – |
| COc1cc(CNC(=O)C2CCN(C(=O)O[C@H]3CCC[C@H](C)C3)CC2)ccc1O [Example 36, (1S,3S)-3-methylcyclohexyl 4-(4-hydroxy-3-methoxybenzylcarbamoyl)-piperidine-1-carboxylate] | 209% | – | Value (%) when fluorescence intensity for capsaicin (1 μM) is 100% ([2]; 1 μM): 104% |
| COc1cc(CNC(=O)C2CCN(C(=O)O[C@@H]3CCCC[C@@H]3C)CC2)ccc1O [Example 37, (1R,2S)-2-methylcyclohexyl 4-(4-hydroxy-3-methoxybenzylcarbamoyl)-piperidine-1-carboxylate] | 236% | – | micronucleus inducing potential [4]: no micronucleus inducing potential; % to pre-administration value: (1) Test compound post-i. pl. administration value [5]: 169%; % to pre-administration value: (2) Pregabalin post-oral administration value (Test compound administered on the day before) ([5]; measured an hour later): 219%; Value (%) when fluorescence intensity for capsaicin (1 μM) is 100% ([2]; 1 μM): 101% |
| COc1cc(CNC(=O)C2CCN(C(=O)O[C@H]3CCCC[C@H]3C)CC2)ccc1O [Example 38, (1S,2R)-2-methylcyclohexyl 4-(4-hydroxy-3-methoxybenzylcarbamoyl)-piperidine-1-carboxylate] | 243% | – | Emax at 1 µM [2, 6]: 97% |
| COc1cc(CNC(=O)C2CCN(C(=O)OC3CCCCCC3)CC2)ccc1O [Example 39] | – | 91% | – |
| COc1cc(CNC(=O)C2CCN(C(=O)OCC3CCCCC3)CC2)ccc1O [Example 40] | – | 91% | – |
| COc1cc(CNC(=O)C2CCN(C(=O)Oc3ccccc3C(C)C)CC2)ccc1O [Example 41, 2-isopropylphenyl 4-(4-hydroxy-3-methoxybenzylcarbamoyl)-piperidine-1-carboxylate] | – | 83% | – |
| COc1cc(CNC(=O)C2CCN(C(=O)Oc3ccccc3C3CCCC3)CC2)ccc1O [Example 42] | – | 72% | – |
| COc1cc(CNC(=O)C2CCN(C(=O)Oc3cccc(C(C)C)c3)CC2)ccc1O [Example 43] | – | 68% | – |
| COc1cc(CNC(=O)C2CCN(C(=O)Oc3ccc(C(C)C)cc3)CC2)ccc1O [Example 44] | – | 83% | – |
| COc1cc(CNC(=O)C2CN(C(=O)Oc3ccccc3C(C)C)C2)ccc1O [Example 45, 2-isopropylphenyl 3-(4-hydroxy-3-methoxybenzylcarbamoyl)-azetidine-1-carboxylate] | – | 72% | – |
| COc1cc(CNC(=O)C2CN(C(=O)Oc3ccccc3C3CCCC3)C2)ccc1O [Example 46, 2-cyclopentylphenyl 3-(4-hydroxy-3-methoxybenzylcarbamoyl)-azetidine-1-carboxylate] | – | 68% | – |
| COc1cc(CNC(=O)C2CCN(C(=O)OC3CCCCC3)CC2)ccc1O [Example 48, cyclohexyl 4-(4-hydroxy-3-methoxybenzylcarbamoyl)-piperidine-1-carboxylate] | – | 77% | – |
| CC(C)C[C@H](CN)CC(=O)O [Pregabalin, reference compound] | – | – | % to pre-administration value: (2) Pregabalin post-oral administration value (vehicle control administered on the day before) ([5]; vehicle i.pl. the day before, Pregabalin 10 mg/kg orally, measured an hour later, Pregabalin alone): 125% |
